# Laboratory results as given in US8178058B2, “High throughput cell-based assays, methods of use and kits” (EMD Millipore Corporation, priority 2007, dated 2012).
# Tested on: activated caspases
# Test: Cell based apoptosis assay (FLICA FAM-VAD-FMK staining, gravity washing, flow cytometry)
# Conditions: cells treated 2 hours at 37° C with 10, 0.63, 0.06 microMolar Staurosporine vs non-induced control
# Procedure: Cell based apoptosis assay was performed using gravity based filtration.
# Cells were treated with increasing concentration of well-known apoptosis inducer (Staurosporine) for 2 hours at 37° C. After induction, cells were treated with FLICA. Unbound FLICAs were removed from the nonapoptotic cells by gravity washing the cells with wash buffer 4 times. After gravity washing cells labeled with FLICAs (FAM-VAD-FMK, pan-caspases FLICA) was examined by flow cytometry.
# Shown in FIGS. 10A and B are flow cytometric histograms of FAM-VAD-FMK stained cells from induced (10, 0.63, 0.06 microMolar of Staurosporine) and non-induced control samples.
# Notice the dose response.
compound,measurement,value
CN[C@@H]1C[C@H]2O[C@@](C)([C@@H]1OC)n1c3ccccc3c3c4c(c5c6ccccc6n2c5c31)C(=O)NC4 [Staurosporine],apoptotic cell population (FAM-VAD-FMK percent positive population),Increase in apoptotic cell population
